Assay results from publication PMC6335200 (Journal of medicinal chemistry, 2018).

Columns and labels:
CHIKV (strain AF15561) = format: cell-based, Chikungunya virus
AP2M1 phosphorylation = AP2M1 phosphorylation by Western analysis in Huh7 cells; format: cell-based, Human; conditions: calyculin A 30 minutes before lysis
EBOV (Kikwit isolate) [1] = assay: microbe, parasite or virus in culture; conditions: Zaire ebolavirus, Huh-7, 48 h, read-out: EBOV antiviral activity EC50
EBOV (Kikwit isolate) [2] = system: EBOV (Kikwit isolate)
GAK = target: T1, GAK (Homo sapiens, UniProt O14976); conditions: read-out: GAK affinity Kd; cited from earlier work
T1 sequence (O14976 1-1311): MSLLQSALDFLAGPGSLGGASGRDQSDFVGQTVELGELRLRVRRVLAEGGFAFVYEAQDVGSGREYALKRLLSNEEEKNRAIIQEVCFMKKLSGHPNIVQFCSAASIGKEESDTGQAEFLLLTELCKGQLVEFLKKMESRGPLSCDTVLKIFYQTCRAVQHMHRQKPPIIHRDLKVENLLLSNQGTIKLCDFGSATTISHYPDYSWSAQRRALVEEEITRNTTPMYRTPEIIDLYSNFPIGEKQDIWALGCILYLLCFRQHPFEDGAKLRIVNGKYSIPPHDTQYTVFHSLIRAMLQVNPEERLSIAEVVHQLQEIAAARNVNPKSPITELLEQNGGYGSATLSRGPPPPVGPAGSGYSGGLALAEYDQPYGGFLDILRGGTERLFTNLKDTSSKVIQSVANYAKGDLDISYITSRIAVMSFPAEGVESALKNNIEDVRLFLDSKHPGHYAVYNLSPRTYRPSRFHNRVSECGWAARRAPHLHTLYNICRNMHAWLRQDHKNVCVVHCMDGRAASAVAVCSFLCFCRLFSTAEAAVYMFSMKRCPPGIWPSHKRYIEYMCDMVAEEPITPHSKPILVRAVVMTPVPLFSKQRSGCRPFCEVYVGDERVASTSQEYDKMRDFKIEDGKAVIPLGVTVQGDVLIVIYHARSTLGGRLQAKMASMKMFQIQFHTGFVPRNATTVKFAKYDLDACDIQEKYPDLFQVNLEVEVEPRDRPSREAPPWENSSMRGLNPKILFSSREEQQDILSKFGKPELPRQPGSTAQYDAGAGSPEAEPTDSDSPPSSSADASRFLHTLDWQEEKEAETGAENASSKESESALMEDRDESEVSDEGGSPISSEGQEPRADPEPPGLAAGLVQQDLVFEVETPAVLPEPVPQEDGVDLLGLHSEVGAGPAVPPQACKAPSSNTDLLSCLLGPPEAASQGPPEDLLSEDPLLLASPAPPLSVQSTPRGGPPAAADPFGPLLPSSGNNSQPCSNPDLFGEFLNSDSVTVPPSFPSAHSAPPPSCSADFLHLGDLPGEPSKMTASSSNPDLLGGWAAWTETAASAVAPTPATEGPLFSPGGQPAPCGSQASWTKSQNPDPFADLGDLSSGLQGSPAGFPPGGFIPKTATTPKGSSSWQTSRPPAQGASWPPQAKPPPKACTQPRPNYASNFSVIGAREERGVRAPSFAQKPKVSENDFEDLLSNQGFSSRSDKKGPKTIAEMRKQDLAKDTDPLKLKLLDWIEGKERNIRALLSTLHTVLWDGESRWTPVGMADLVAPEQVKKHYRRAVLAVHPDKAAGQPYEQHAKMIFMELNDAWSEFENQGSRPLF

Row | Structure (SMILES) | effect on CHIKV infection (in words) (CHIKV (strain AF15561)) | effect on AP2M1 phosphorylation (in words) (AP2M1 phosphorylation) | EC50 (EBOV (Kikwit isolate) [1]) [nM] | anti-EBOV activity (in words) (EBOV (Kikwit isolate) [2]) | Kd (GAK) [nM]
1 | COc1cc(-c2cnc3c(N4C[C@@H](C)O[C@@H](C)C4)snc3c2)ccc1N [Compound 12r, 4-(3-(cis-2,6-Dimethylmorpholino)isothiazolo[4,3-b]pyridin-6-yl)-2-methoxyaniline] | dose-dependent decrease in CHIKV infection | reduced AP2M1 phosphorylation | ~2000 | – | –
2 | COc1cc(-c2cnc3c(N4CCOCC4)snc3c2)ccc1N [Compound 4] | – | – | – | no anti-EBOV activity beyond cytotoxicity | 8
